Test results as given in patent US10246455B2, “Histone deacetylase inhibitors” (Taipei Medical University, priority 2014, dated 2019).

Key:
[1] = test system: Detroit551 (normal: fibroblast); experiment: IC50 against cell lines: Detroit551; conditions: Homo sapiens, Detroit 551, read-out: IC50 ± SD against human cancer cell lines
[2] = test system: K2 (normal: keratinocyte); experiment: IC50 against cell lines: K2; conditions: Homo sapiens, read-out: IC50 ± SD against human cancer cell lines
HDAC 1 = HDAC 1 (Homo sapiens, UniProt Q13547); experiment: Deacetylase enzyme assay (fluorescence release): HDAC1; type: biochemical; conditions: 24-hour study
Text: (§1) Proteins from cells were extracted and subjected to the western blotting analysis. β-Actin was used as an internal control. The deacetylase enzyme assay was based on a homogeneous fluorescence release assay. […] After fluorophore from the deacetylated substrates, fluorescent signal was detected.

[3] = test system: histone and α-tubulin acetylation in human BJAB B cell lymphoma; experiment: Western blot: acetylation in BJAB cells; type: cell-based
Protocol: (§2) More specifically, cells in the logarithmic phase were initially seeded at a density of 1×10^6 in 100 mm^2 dishes. […] Briefly, cells were lysed with the cell lysis reagent CelLytic™ M (Sigma-Aldrich) containing 1 mM DTT, 1 mM PMSF and protease inhibitors for whole-cell lysate preparation. Equal amounts of lysate (on a protein basis) were then differentiated using the SDS-PAGE, blotted on PVDF membranes, conjugated with various specific primary antibodies, and then probed with appropriate secondary antibodies. The immunoreactive bands were detected using the ECL method and visualized on Kodak Bio-MAX MR film.
as §1

[4] = test system: MDA-MB-231 (breast carcinoma); experiment: IC50 against human cancer cell lines: MDA-MB-231; conditions: MDA-MB-231, read-out: IC50 ± SD against human cancer cell lines
Protocol: (§3) More specifically, the IC50 values of test compounds were determined by carrying out a fluorimetric histone deacetylase assay following the manufacturer's instructions. For a pan-HDAC assay, HeLa nuclear extracts were used as a source of histone deacetylase (BioVision Inc.). Histone deacetylase isomer inhibition assays were conducted using purified recombinant histone deacetylase proteins of the various isomers (BPS Bioscience Inc.). Reactions were performed in 0.1 mol/L KCl, 20 mmol/L HEPES/NaOH at pH 7.9, 20% glycerol, 0.2 mmol/L DTA, 0.5 mmol/L DTT, and 0.5 mmol/L phenylmethylsulfonylfluoride. […] Reactions were carried out in triplicate for each test compound. Each point represented the mean±SD of replicates.

H9 (T cell lymphoma) = experiment: IC50 against human cancer cell lines: H9; conditions: read-out: IC50 ± SD against human cancer cell lines
KB-VIN10 (KB resistant) = experiment: IC50 against human cancer cell lines: KB-VIN10; conditions: Homo sapiens, KB-VIN10, read-out: IC50 ± SD against human cancer cell lines
KB-L30 (KB-resistant) = experiment: IC50 against human cancer cell lines: KB-L30; conditions: read-out: IC50 ± SD against human cancer cell lines
Protocol: as §3

BJAB (B cell lymphoma) = experiment: IC50 against human cancer cell lines: BJAB; conditions: read-out: IC50 ± SD against human cancer cell lines
[5] = test system: histone and α-tubulin acetylation in MDA-MD-231 breast carcinoma; experiment: Western blot: acetylation in MDA-MD-231 cells; type: cell-based, human
Protocol: as §2, §1

WI-38 (normal: lung) = experiment: IC50 against cell lines: WI-38; conditions: Homo sapiens, WI-38, read-out: IC50 ± SD against human cancer cell lines
[6] = test system: HUVEC (normal: endothelial); experiment: IC50 against cell lines: HUVEC; conditions: Homo sapiens, read-out: IC50 ± SD against human cancer cell lines
SCC15 (tongue carcinoma) = experiment: IC50 against human cancer cell lines: SCC15; conditions: SCC-15, read-out: IC50 ± SD against human cancer cell lines
[7] = test system: RWPE-1 (normal: prostate); experiment: IC50 against cell lines: RWPE-1; conditions: Homo sapiens, RWPE-1, read-out: IC50 ± SD against human cancer cell lines
[8] = test system: A549 (non-small-cell lung carcinoma); experiment: IC50 in human cancer cell lines (inhibiting HDAC): A549; conditions: Homo sapiens, A549, read-out: IC50, inhibiting HDAC in human cancer cell lines
TSGH (gastric carcinoma) = experiment: IC50 in human cancer cell lines (inhibiting HDAC): TSGH; conditions: read-out: IC50, inhibiting HDAC in human cancer cell lines
Protocol: as §3

[9] = test system: human glioblastoma (U87MG or GBM8401) cells; experiment: Cell viability in human glioblastoma in vitro (MTT); type: cell-based; conditions: U-87 MG, U87MG or GBM8401, 30 uM, read-out: reduction of the cell viability
Protocol: U87MG human glioblastoma cell line was treated with Compound 7 and analyzed following the procedure described below.
Cell viability was assessed by an MTT assay. Briefly, cells were incubated with 0.25 mg/mL MTT (Sigma) at 37° C. for 1 hour and the MTT fomazan were measured spectrophotometrically (μQuant, Bio-Tek) at 595 nm after dissolution of the crystals in DMSO.

HSC-3 (oral carcinoma) = experiment: IC50 in human cancer cell lines (inhibiting HDAC): HSC-3; conditions: HSC-3, read-out: IC50, inhibiting HDAC in human cancer cell lines
[10] = test system: human glioblastoma (U87-MG-LucNeo cells) xenograft; experiment: Orthotopic tumor size measurement (bioluminescence imaging); type: in vivo, mice; conditions: Compound 7 25 mg/kg versus SAHA 150 mg/kg and TMZ 25 mg/kg
Text: Another parallel set of xenografted nude mice treated with drug or vehicle treatment as described above were used in this experiment.

[11] = test system: human colorectal HCT116 xenograft; experiment: In vivo antitumor activity assay, HCT116 xenograft; conditions: for inhibition of human colorectal HCT116 xenograft growth: day 22 after the first dosing
Text: The antitumor effect of the two test compounds were examined in mice xenografted with human PC3 prostate cancer cells or HCT116 colorectal cells.
Five million PC3 cells were subcutaneously inoculated into specific pathogen-free male athymic mice (strain BALB/cAnN.Cg-Foxn1nu/CrlNarl) from the National Laboratory Animal Center, Taiwan. Mice were subsequently fed under specific pathogen-free conditions and provided with sterile water and food. When the tumor volume reached 150 to 200 mm^3, mice were assigned to groups randomly and treated with vehicle control or Compound 7 or 5b at 25/50/100 mg/kg. The compound was administered once a day, 5 days/week for 2 weeks (n=6) by oral administration. Tumor volume and body weight change were measured twice a week. At the end of the experiments (day 25 after first dosing), animals were euthanized in a CO2-containing chamber, and the tumors were collected and fixed in formaldehyde. The terminal deoxynucleotidyl transferase-mediated dUTP nick end labeling assay (TUNEL) was conducted for apoptosis detection. Tumor tissue sections were analyzed using a FITC In Situ Cell death detection kit (Roche) and fluorescence microscopy. Tissue treated with DNase was used as the positive control. Green fluorescence labeled nucleus indicates the induction of DNA fragmentation.

[12] = test system: MKN-45 (gastric carcinoma); experiment: IC50 in human cancer cell lines (inhibiting HDAC): MKN-45; conditions: MKN-45, read-out: IC50, inhibiting HDAC in human cancer cell lines
Protocol: as §3

HDAC 1, sequence (Q13547 whole entry, species assumed): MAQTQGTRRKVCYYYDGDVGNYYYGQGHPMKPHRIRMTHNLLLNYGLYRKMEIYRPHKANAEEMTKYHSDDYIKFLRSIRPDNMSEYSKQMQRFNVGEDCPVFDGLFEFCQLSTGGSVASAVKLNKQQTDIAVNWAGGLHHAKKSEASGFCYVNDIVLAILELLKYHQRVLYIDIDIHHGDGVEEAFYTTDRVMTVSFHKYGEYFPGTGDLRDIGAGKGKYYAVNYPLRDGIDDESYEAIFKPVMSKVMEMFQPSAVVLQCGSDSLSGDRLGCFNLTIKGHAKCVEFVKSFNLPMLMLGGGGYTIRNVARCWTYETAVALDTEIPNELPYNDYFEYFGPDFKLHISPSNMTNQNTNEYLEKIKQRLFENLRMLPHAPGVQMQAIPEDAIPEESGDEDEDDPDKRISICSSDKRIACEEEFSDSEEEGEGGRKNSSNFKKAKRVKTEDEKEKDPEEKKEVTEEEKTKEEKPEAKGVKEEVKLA

Structure (SMILES): COc1ccc(S(=O)(=O)N2CCc3cc(/C=C/C(=O)NO)cnc32)cc1 [Compound 5b, (E)-N-hydroxy-3-(1-(4-methoxyphenylsulfonyl)-2,3-dihydro-1H-pyrrolo[2,3-b]pyridin-5-yl)acrylamide]
- IC50 [1]: 707 ± 64.7 nM
- IC50 [2]: 447 ± 37.3 nM
- concentration inducing inhibition of HDAC 1 (HDAC 1): ≤ 50 nM
- histone and α-tubulin acetylation [3]: induced histone and α-tubulin acetylation
- IC50 [4]: 247 ± 9.3 nM
- IC50 (H9 (T cell lymphoma)): 55.4 ± 7.8 nM
- IC50 (KB-VIN10 (KB resistant)): 85 nM
- IC50 (KB-L30 (KB-resistant)): 175 ± 26.8 nM
- IC50 (BJAB (B cell lymphoma)): 161 ± 20.3 nM
- histone and α-tubulin acetylation [5]: induced histone and α-tubulin acetylation
- IC50 (WI-38 (normal: lung)): 272 ± 52.3 nM
- IC50 [6]: 62 ± 2.8 nM
- IC50 (SCC15 (tongue carcinoma)): 176 ± 63.9 nM
- IC50 [7]: 240 ± 108 nM

Structure (SMILES): O=C(/C=C/c1cccc(S(=O)(=O)n2ccc3cccnc32)c1)NO [Compound 7, (E)-3-(3-(1H-Pyrrolo[2,3-b]pyridin-1-ylsulfonyl)phenyl)-N-hydroxyacrylamide]
- IC50 [8]: 1330 ± 190 nM
- IC50 (TSGH (gastric carcinoma)): 2100 ± 110 nM
- cytotoxicity at 30 µM [9]: ~70%
- IC50 (HSC-3 (oral carcinoma)): 660 ± 120 nM
- tumor size (bioluminescence imaging) [10]: decreased the tumor size more than a higher dose of SAHA (150 mg/kg) or the same dose of TMZ (25 mg/kg)
- inhibition of human colorectal HCT116 xenograft growth ([11]; 25 mg/kg): 50-60%
- inhibition of human colorectal HCT116 xenograft growth ([11]; 50 mg/kg): 50-60%
- inhibition of human colorectal HCT116 xenograft growth ([11]; 100 mg/kg): 50-60%
- body weight change ([11]; HCT116 xenograft mice, 25, 50 and 100 mg/kg): without causing much body weight change
- IC50 [12]: 2510 ± 810 nM
